According to patent US20220098146A1, “REVERSIBLE IMINE UV-ABSORBERS” (The United States of America, as represented by the …, priority 2020, published 2022):
Values after ≈ are worked out from the molar mass of the structure shown.

Assays:
Rat = settings: cited from earlier work
Silver ide = settings: cited from earlier work
Fathead minnow = settings: cited from earlier work
[1] = in vitro SPF and critical wavelength by UV spectroscopy and Mansur equation; format: physicochemical
Protocol: General procedure for determining in vitro SPF and critical wavelength: This method was adapted from Dutra, et al. (Dutra, E. A., et al., Brazilian Journal of Pharmaceutical Sciences, 3: 381-385 (2004)). First, 1.0 gram of sunscreen was placed in 100 mL flask and filled to volume with ethanol. The solution was mixed and filtered through cotton. 1.0 mL of the filtered solution was added to a 50 mL volumetric flask and the flask was filled to volume with ethanol. This final solution (˜0.02% of initial sunscreen) was placed in a 1 cm polystyrene cuvette and UV/Vis spectrum was recorded from 290 to 400 nm, every 5 nm, using a UV/Vis spectrophotometer (Molecular Devices Spectramax M2 UV-Vis Spectrophotometer) with ethanol as a reference . Next, the Mansur equation was applied (Mansur, J. S., et al., An Bras Dermatol., 61: 121-124 (1986)):
where EE (λ)=erythemal effect spectrum; I(λ)=solar intensity spectrum; abs (λ)=absorbance of sunscreen product; CF—correction factor (=10). The values of EE×I are constants determined by Sayre et al. (Photochemistry and Photobiology, 29(3): 559-566 (1979)) so that a standard sunscreen formulation containing 8% homosalate presents an SPF value of 4. The critical wavelength was determined as the wavelength at which 90% of the total absorbance from 290-400 nm occurred. […]

[2] = tested on: skin of the intrascapular regions of the back; assay: Human repeat insult patch testing (RIPT) for skin irritation and skin sensitization; format: in vivo
Protocol: S2: Repeat Insult Patch Testing (RIPT) Procedure and Results: Human repeat insult patch testing for skin irritation and skin sensitization evaluations, including standard patient consent procedures and oversight, which were obtained after the nature and possible consequences of the study were explained, were conducted by BioScreen Testing Services, Inc. (Torrance, Calif.). Fifty-two volunteers were recruited, provided informed consent prior to initiating, and completed the study (ages 20-59, 10 male, 42 female, all with Fitzpatrick Skin Type 3—burn moderately, tan progressively). Approximately 0.02-0.05 mL of commercial formula (Daily Shower spray cleaner containing 0.2 or 1.0% cuminaldehyde aminoguanidine (CuminAG), pH 5.5-5.9; diluted 3% in DI water) was dispensed on a 7.5 mm paper disk or Rayon/polypropylene patch, which were then affixed to the skin of the intrascapular regions of the back. Subjects were instructed not to wet or expose the test area to sunlight. Patches were kept in place for 48 h after the first application, and 24 h after subsequent applications. This procedure was repeated until nine consecutive 24 h exposures had been made three times a week for three consecutive weeks. Test sites were evaluated by a trained laboratory personnel before each reapplication. After a 10-14 day rest period, a challenge dose was applied once to a previously unexposed test site, which was evaluated by a trained personnel after 48 and 96 h. The International Contact Dermatitis Research Group scoring scale was used: 0=no reaction, 1=erythema throughout at least ¾ of patch area, 2=erythema and induration throughout at least ¾ of patch area, 3=erythema, induration and vesicles, 4=erythema, induration and bullae.

[3] = Calculation of skin permeation coefficient using Modified Potts and Guy Model; settings: ratio of calculated skin permeation coefficient to that of octinoxate
Text: S1: Calculation of Skin Permeation using Modified Potts and Guy Model: The Modified Potts and Guy Model is a validated method for calculating the skin permeation coefficient (Kp) of a compound in cm/hr (Wilschut et al. 1995; Guy and Potts 1993). It relies on two inputs—the octanol-water partition coefficient, (Kow, indicative of hydrophobicity), and the molecular weight of the compound as follows:
Using the Modified Potts and Guy Model, we calculated the skin permeation coefficient (Kp) of aminoguanidine and aldehyde subcomponents. This scenario represents the skin permeation of our compounds after dissociation. In order to probe skin permeation of the assembled guanyl hydrazones, which don't have published Kow's, we calculated Kp's of structurally similar molecules, robenidine and guanabenz. This scenario represents the application of our UV-absorbers directly to the skin via topical products. Lastly, we calculated the Kp of octinoxate for comparison. Based on these theoretical values, our compounds should have a much lower skin permeation potential than octinoxate and other commercial UV-absorbers.

[4] = UV absorbance spectroscopy versus subcomponents; format: physicochemical; settings: versus diaminoguanidine and cinnamaldehyde; UVB and UVA regions
Text: We determined the UV absorbing capacity of guanyl hydrazones in comparison to their aminoguanidine and aldehyde subcomponents. We prepared cinnamaldehyde diaminoguanidine (CinDAG) by reacting its subcomponents, diaminoguanidine and cinnamaldehyde, in a molar ratio of 1:2.

[5] = film leaching in DI or sea water with anion pairing; format: physicochemical
Protocol: General protocol to assess film leaching: To a polyethylene square (1 cm by 1 cm, cut from a Ziploc® bag) 10 μL of a concentrated solution (˜5 wt % in EtOH) of imine was applied and allowed to dry at room temperature (10-20 min) before a concentrated solution of the anion (e.g., sodium lauryl sulfate, sodium cocoyl glutamate, sodium carbonate) to be tested (˜5 wt %) was co-applied and again allowed to dry on the film surface. The film sample was placed inside a 1.5 mL plastic tube containing 1 mL of DI or sea water (sourced from San Francisco Bay, Albany, Calif.) and after a set time (10 min), analyzed for the presence of soluble imine, which was quantified as a percentage of total sample that was originally present on the film (FIG. 6).
As an additional feature, reversible UV-absorbers (e.g., aminoguanidine-aldehyde condensation products) can be paired with anions (e.g., that associate with the cation at typical use levels, e.g., 0.1-10 wt %) to manipulate solubility characteristics. This can greatly reduce water solubility to produce a waterproof sunscreen without relying on increased hydrophobicity of the active agent which is related to increased skin penetration (Wilschut, A., et al., Chemosphere, 30: 1275-1296 (1995); Guy, R. H., and R. O. Potts. American Journal of Industrial Medicine, 23(5): 711-719 (1993))).

COc1ccc(C=O)cc1 [Anisaldehyde]
LD50 (mg/kg) Rat, oral (Rat): 1510 mg/kg
LC50 (mg/L) Fish (Silver ide): 215 mg/L (≈ 1580 µM)

O=Cc1ccccc1 [Benzaldehyde]
LC50 (mg/L) Fish (Fathead minnow): 12.4 mg/L (≈ 117 µM)
LD50 (mg/kg) Rat, oral (Rat): 1300 mg/kg

NC(N)=NN=CC=Cc1ccccc1 [CinAG, cinnamaldehyde aminoguanidine]
in vitro SPF improvement over octinoxate ([1]; concentration of 1% in formula): 155%

O=CC=Cc1ccccc1 [Cinnamaldehyde]
LC50 (mg/L) Fish (Fathead minnow): 105.8 mg/L (≈ 801 µM)
LD50 (mg/kg) Rat, oral (Rat): 3350 mg/kg

CC(C)c1ccc(C=NN=C(N)N)cc1 [CuminAG, cuminaldehyde aminoguanidine]
adverse reactions in RIPT ([2]; Daily Shower spray cleaner containing 0.2 or 1.0% CuminAG, pH 5.5-5.9, diluted 3% in DI water, 52 volunteers, induction and challenge): no adverse reactions of any kind

CC(C)c1ccc(C=O)cc1 [Cuminaldehyde]
LC50 (mg/L) Fish (Fathead minnow): 6.62 mg/L (≈ 44.7 µM)
LD50 (mg/kg) Rat, oral (Rat): 1390 mg/kg

N/N=C(\N)NN [Diaminoguanidine]
Kp/Kp octinoxate [3]: 0.0001

CCCCC(CC)COC(=O)C=Cc1ccc(OC)cc1 (stereo not drawn) [Octinoxate, reference compound]
Kp/Kp octinoxate [3]: 1.0000

CCCCCCCCCCCCOS(=O)(=O)[O-].[Na+] [sodium lauryl sulfate]
subjects with Grade 1 reaction in RIPT ([2]; positive control, 2.0% solution, ICDRG scale, 1=erythema throughout at least 3/4 of patch area): Four
subjects with Grade 2 reaction in RIPT ([2]; positive control, 2.0% solution, ICDRG scale, 2=erythema and induration throughout at least 3/4 of patch area): two

cinnamaldehyde diaminoguanidine [CinDAG]
UV-absorbing capacity compared to subcomponents [4]: significantly more UV-absorbing capacity than its subcomponents
water resistance of the blend ([5]; blend with sodium cocoyl glutamate): comparable to that of octinoxate
solubility (leaching off film) on anion pairing ([5]; sodium cocoyl glutamate added, fresh and salt water, 10 min): decreased solubility in both fresh and salt water
critical wavelength ([1]; wavelength at which 90% of total absorbance from 290-400 nm occurred): high critical wavelength
